Measured values taken from a melting point compilation (Tetko et al.; mined from patent text by program, amines drawn as free bases though some values may be those of a salt).

Point of comparison: CCCCCCCCCCOc1cc(OCCCCCCCCCC)cc(N2CC(=O)OC(=O)C2)c1, melting point 62 °C. Against it:
- CC(C)=CCOC(=O)c1cnn(-c2c(Cl)cc(Cl)cc2Cl)c1N — higher, 102 to 105 °C
- CN1CC(CN(CCC#N)C(N)=O)CC2c3cccc4[nH]cc(c34)CC21 (configuration not stated) — higher, 252 to 254 °C
- CCCCC12CCC3C4CCC(=O)C=C4CCC3C1CCC2(O)CC (configuration not stated) — higher, 78 to 80 °C
- O=C1Nc2ccc([N+](=O)[O-])cc2C12OCCCO2 — higher, 155 to 168 °C
- Clc1nc(SCc2ccccc2)ncc1Br — lower, 56 to 57 °C
- N#Cc1cccc2c1CCCc1ccccc1-2 — higher, 109 to 111 °C
- Cc1nnc(-c2ccccc2OCC2CO2)o1 (configuration not stated) — lower, 38 to 40 °C
- Cc1nc2ncnn2c(Cl)c1C1CCCC1 — higher, 87 °C
- NCCOc1cc(Cl)cc(Cl)c1 — higher, 86 to 89 °C
- COC(=O)C1=C(C)NC(C)=C([N+](=O)[O-])C1c1cccc2ncc(-c3ccccc3)cc12 (configuration not stated) — higher, 262 °C
- CC(C)(COc1ccc2nccn2n1)CS(N)(=O)=O — higher, 165 to 167 °C
- Cc1cc(C)c2cccc(OCc3c(Cl)ccc(S(=O)(=O)N4CCC[C@H]4C(=O)N4CCN(C(=O)c5ccc(C(N)=NO)cc5)CC4)c3Cl)c2n1 — higher, 161 °C
- Cc1ccc(Cl)cc1N1CN(C)CN(C)C1=S — higher, 157 to 159 °C
- C=CCOc1ccc(C2C(=O)Oc3c2cc(C(C)(C)C)cc3C(C)(C)C)cc1 (configuration not stated) — higher, 112 to 114 °C
- N#CC1(C2CCCc3ccccc32)CC1 (configuration not stated) — higher, 91 to 93 °C
- CN1CCN(C(=NS(=O)(=O)c2ccc(F)cc2)N2CC(c3ccccc3)C(c3cccnc3)=N2)CC1 (configuration not stated) — higher, 169 to 170 °C
- CC(=O)N(C)C(Cc1ccncc1)C(=O)O (configuration not stated) — higher, 86 to 88 °C
- COc1cc2ccccc2cc1OC — higher, 112 to 113 °C
- O=S(=O)(Nc1ncnc(Cl)c1-c1ccc(-c2ccccc2)cc1)c1ccc(Cl)cc1 — higher, 234 to 235 °C
- COc1ccc(S(=O)(=O)Nc2cccnc2Nc2ccc(OC)c(OC)c2)cc1 — higher, 126 to 127 °C
- O=S(=O)(NCCc1cccnc1)c1ccc(Cl)cc1 — higher, 143 to 145 °C
- CC(NC(=O)Cc1cc(F)cc(F)c1)C(=O)NC1C(=O)N(C)Cc2ccccc21 (configuration not stated) — higher, 174 to 175 °C
- CCCn1ncc2c(=O)[nH]c(-c3cc(Br)ccc3OCC)nc21 — higher, 172 to 173 °C
- Cc1cc(NCc2ccccc2)c(C)c2c1OCC2c1ccc(C(C)C)cc1 (configuration not stated) — higher, 82 to 83 °C
- Cc1ncc(CN2CC=C(c3ccccc3)CC2)c(N)n1 — higher, 165 to 166 °C
- Cc1cccc(NC(=O)NCC(=O)N(CC(=O)N2CCc3ccccc3C2)c2ccccc2)c1 — higher, 135 °C
- CC=Cc1cccc2c(=O)c(C)c(-c3ccc(OC)cc3)oc12 — higher, 169 to 171 °C
- CC(=O)OCc1cc(O)c2c(c1)C(=O)c1cccc(C(C)=O)c1C2=O — higher, 190 to 191 °C
- O=C1NC(O)(C(Cl)(Cl)Cl)NC1=O — higher, 245 °C
- COc1ccc(-n2nc(C(F)(F)F)cc2OCN2C(=O)c3c(C(C)C)cc(OC)cc3S2(=O)=O)cc1 — higher, 111 to 113 °C
- CCCCCCCCCCCCCCCCCCOc1cc(OCCCOc2ccc(S(C)=O)cc2)cc(C(=O)O)c1 (configuration not stated) — higher, 77 to 80 °C
- O=C(O)c1cc(-n2c(-c3ccc(Br)cc3)cc3c2CCCC3)ccc1O — higher, 231 to 232 °C
- CC(=O)NCCc1ccc(CN2CCN(c3ccc(F)cc3)CC2)cc1 — higher, 121 to 123 °C
- CCOC(=O)c1c[nH]c2oc3ccccc3c(=O)c2c1=O — higher, 174 to 175 °C
- COc1cc(=O)[nH]c2cc(O)ccc2c1=O — higher, 273 to 275 °C
- O=C1c2cc(O)ccc2OCC1Cc1ccccc1 (configuration not stated) — higher, 140 to 143 °C
- COC(=O)c1ccc(OCCCN2CCC(C(O)(c3ccc(F)cc3)c3ccc(F)cc3)CC2)c(OC)c1 — higher, 131 to 132 °C
- C[C@H]1C(=O)OCN1C(=O)OCc1ccccc1 — higher, 89 to 91 °C
- O=C(O)C=CC(=O)c1ccco1 — higher, 153 to 155 °C
- COc1ccc(N2CCCCN(CCCCNC(=O)c3ccc(NC(=O)c4ccc(Cl)cc4)cc3)CC2)c(OC)c1 — higher, 229 °C
- Nc1ncccc1C(=O)NCC1CCN(C[C@H]2COc3ccc4[nH]ccc4c3O2)CC1 — higher, 104 to 106 °C
- CCOC(=O)c1cnc2nc(N3CCN(C)CC3)ncc2c1OCC — higher, 105 to 108 °C
- Cn1c2ccccc2c(=O)c2cccn21 — higher, 154 to 156 °C
- Nc1nc2cc(Cl)c(Cl)cc2n1Cc1ccccc1 — higher, 245 to 246 °C
- CCCNc1ccc(-c2nc(=O)c3ccccc3s2)cn1 — higher, 210 to 211 °C
- O=C1N(Cc2ccc(Br)cc2)c2ccccc2C12COc1cc3c(cc12)OCO3 (configuration not stated) — higher, 148 to 150 °C
- COc1ccc(Cn2c3c(ccc2=O)C(C)NC(SC)=N3)cc1Cl (configuration not stated) — higher, 184 to 186 °C
- FC(F)(F)c1cccc(Nc2ccccc2-c2n[nH]c(=S)o2)c1 — higher, 211 to 213 °C
- CCCCCCCCNCC(O)C(O)C(O)C(O)CO (configuration not stated) — higher, 114 to 116 °C
- O=S1(=O)c2cccc3cccc(c23)N1CCN1CCC(CN2CCc3[nH]c4ccc(F)cc4c3C2)CC1 — higher, 228 °C
- COc1ccc(-c2c(Cl)c(CN3C(=O)CCC3=O)nc3sc4c(c23)CC/C(=N/O)C4)cc1 — higher, 248 to 249 °C
- O=C1N(C(c2ccccc2)c2ccccc2)c2ccccc2C12COc1cc3c(cc12)OCCO3 (configuration not stated) — higher, 183 to 185 °C
- COCOc1cc(OC)ccc1C(=O)c1cccc(OCc2nc(-c3ccccc3)oc2C)c1 — higher, 117 to 118 °C
- Cn1ncnc1COc1nc2c(cc1C(C)(C)C)nnn2-c1c(F)cccc1F — higher, 105 to 108 °C
- CCOC(=O)c1c(N2CCN(C(=O)c3ccco3)CC2)c2cc(F)cnc2n(Cc2ccccc2)c1=O — higher, 119 °C
- CCCN(CCC)c1nc2ccccc2n2cnnc12 — higher, 240 to 242 °C
- Cc1c(SCCCSc2sccc2[N+](=O)[O-])ccnc1CO — higher, 134 to 138 °C
- CC(C)(C)OC(=O)N1CCC[C@H]1CNc1ccc2nccn2n1 — higher, 161 to 162 °C
- O=C1c2ccccc2C(=O)N1CCCCCCCCOc1cccc2ccccc12 — higher, 63 to 64 °C
- Fc1ccc(C(Cl)=NNc2ccccc2)cc1 — higher, 118 to 120 °C
- CCCCc1c(OC(=O)C(C)(C)C)n(-c2ccc(OC(C)=O)cc2)n(-c2ccccc2)c1=O — higher, 151 to 158 °C
- c1ncn(-c2cc3cc[nH]c3cn2)n1 — higher, 203 to 205 °C
- O=C1CC2Sc3nc4ccccc4n3C2(c2ccc(Cl)cc2)O1 (configuration not stated) — higher, 115 to 117 °C
- OCc1c(C2CC2)nn2ccc3c(c12)CCO3 — higher, 139 to 140 °C
- COc1ccc(-c2cc3cc(F)c(F)cc3[nH]2)cc1NCc1cccc([N+](=O)[O-])c1 — higher, 212 to 214 °C
- CC1C(=O)N(CC(=O)CCc2ccccc2)C1S(=O)Cc1ccccc1 (configuration not stated) — higher, 87 to 94 °C
- Cc1cc(-c2nc3cc(Cl)cc(CCc4ccccn4)c3o2)[nH]n1 — higher, 205 to 220 °C
- COc1cccc(Nc2ncc3cc4ccccc4n3n2)c1 — higher, 191 to 193 °C
- CC(C)(ON1C(C)(C)CC(OC(=O)CCCCCCCCC(=O)OC2CC(C)(C)N(OC(C)(C)c3ccccc3)C(C)(C)C2)CC1(C)C)c1ccccc1 — higher, 94 to 96 °C
- CN1CCN(C2CC(=O)c3ccc(F)cc32)CC1 (configuration not stated) — higher, 102 to 103 °C
- CC(CCCCCCCCCC(=O)O)CC(=O)O (configuration not stated) — higher, 68.5 to 69.5 °C
